Read-outs that look alike come from different tables or passages of the source.
What was measured:
[1] = system: Botrytis cinerea; assay: Example P: in vivo test on Botrytis cinerea (gray mould on bean/protective); settings: 48 h, bean, protective, 250 ppm active substance, assessed 2 days after inoculation, read-out: % Wirkungsgrad (activity level)
Method in brief: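 Protective test: young bean plants sprayed with the active substance preparation (emulsifier-based concentrate diluted in water) at the stated dosage. Once dry, each leaf received 2 agar pieces bearing Botrytis cinerea. Infection blotch size assessed 2 days after inoculation.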

[2] = system: Fusarium nivale (var. majus); assay: whole plant or invertebrate; assay type: in vivo; settings: Microdochium nivale, in Triticum aestivum, 120 h, read-out: % Wirkungsgrad (activity level)
[3] = system: Leptosphaeria nodorum; assay: Example Q: in vivo test on Leptosphaeria nodorum (glume blotch in wheat/protective); settings: Parastagonospora nodorum, 192 h, wheat, protective, assessment 8 days after inoculation, read-out: % Wirkungsgrad
Description: (§1) Solvent: 49 parts by weight N,N-dimethylacetamide Emulsifier: 1 part by weight alkylaryl polyglycol ethers For the preparation of a suitable active substance preparation, 1 part by weight of active substance is mixed with the stated quantities of solvent and emulsifier and the concentrate is diluted to the desired concentration with water. For the testing for protective activity, young plants are sprayed with the active substance preparation at the stated application dosage. After drying of the spray coating, the plants are sprayed with spores with a spore suspension of Leptosphaeria nodorum. […] 8 days after the inoculation, the assessment takes place.

[4] = system: Venturia inaequalis; assay: Example O: in vivo test on Venturia inaequalis (apple scab/protective); settings: 240 h, protective, assessment 10 days after inoculation, read-out: % Wirkungsgrad
Method in brief: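 Protective test: active substance mixed with solvent and alkylaryl polyglycol ether emulsifier, diluted with water, and sprayed on young plants at the stated dosage before Venturia inaequalis inoculation. Scab assessed 10 days after inoculation.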

[5] = system: Plasmopara viticola; assay: Example N: in vivo test on Plasmopara viticola (downy mildew, vine/protective); settings: 144 h, vine, protective, assessment 6 days after inoculation, read-out: % Wirkungsgrad
Method in brief: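 Protective test: young vine plants were sprayed with active substance diluted in water from a solvent/alkylaryl polyglycol ether emulsifier concentrate at the stated dosage, then inoculated with P. viticola. Plants were moistened and kept 1 day in an incubation cabin, and assessed 6 days after inoculation.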

[6] = system: Septoria tritici; assay: Example R: in vivo test on Septoria tritici (leaf blotch in wheat/protective); settings: Zymoseptoria tritici, 504 h, wheat, protective, 1000 ppm active substance, assessed 21 days after inoculation, read-out: % Wirkungsgrad (activity level)
Description: as §1, with “with” for “with spores with”, “Septoria tritici.” for “Leptosphaeria nodorum.”, “21” for “8”

[7] = physchem; settings: LogPA
[8] = system: Alternaria solani; assay: Example M: in vivo test on Alternaria solani (leaf blotch disease/tomato/protective); settings: 168 h, tomato, protective, 500 ppm active substance, assessed 7 days after inoculation, read-out: % Wirkungsgrad (activity level)
Method in brief: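 Protective test: young tomato plants sprayed with active substance (in DMF with alkylaryl polyglycol ether emulsifier, diluted in water) at the stated dosage, then inoculated with Alternaria solani. Disease assessed 7 days after inoculation.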

[9] = system: Rhynchosporium secalis; assay: Example S: in vivo test on Rhynchosporium secalis (leaf scald in barley/protective); settings: 336 h, barley, protective, 1000 ppm active substance, assessed 14 days after inoculation, read-out: % Wirkungsgrad (activity level)
Description: as §1, with “Rhynchosporium secalis.” for “Leptosphaeria nodorum.”, “14” for “8”

[10] = system: Fusarium graminearum; assay: whole plant or invertebrate; assay type: in vivo; settings: in Hordeum vulgare, 120 h, read-out: % Wirkungsgrad (activity level)
[11] = system: Sphaerotheca fuliginea; assay: Example L: in vivo test on Sphaerotheca fuliginea (powdery mildew on cucumber/protective); settings: Podosphaera fuliginea, 168 h, cucumber, protective, assessment 7 days after inoculation, read-out: % Wirkungsgrad
Method in brief: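 Young cucumber plants sprayed at stated dosage with compound in DMF/alkylaryl polyglycol ether emulsifier diluted in water; inoculated with S. fuliginea spores one day later. Kept in greenhouse at 70% relative humidity, 23° C; protective activity assessed 7 days after inoculation.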

[12] = system: Fusarium graminearum; assay: microbe, parasite or virus in culture; assay type: cell-based
[13] = system: Fusarium proliferatum; assay: Example I: production of fumonisin FB1 by Fusarium proliferatum (microtitre plates); assay type: cell-based; settings: 120 h
[14] = 72 h, read-out: % Inhibition des Pilzwachstums bei 50 μM
[15] = 168 h, read-out: % Inhibition der DON/AcDON produktion bei 50 μM
[16] = Fusarium proliferatum growth, OD 620, 5 days, read-out: % Inhibition des Pilzwachstums bei 50 μM
[17] = Fusarium proliferatum, 5 days at 20° C., HPLC-MS/MS, read-out: % Inhibition der FB1 produktion bei 50 μM

| Structure (SMILES) | pest or weed control at 250 ppm [1] [%] | pest or weed control at 1000 ppm [2] [%] | pest or weed control at 1000 ppm [3] [%] | pest or weed control at 100 ppm [4] [%] | pest or weed control at 100 ppm [5] [%] | pest or weed control at 1000 ppm [6] [%] | chromatographic logP [7] | pest or weed control at 500 ppm [8] [%] | pest or weed control at 1000 ppm [9] [%] | pest or weed control at 1000 ppm [10] [%] | pest or weed control at 500 ppm [11] [%] | inhibition at 50 µM [12, 14] [%] | inhibition at 50 µM [12, 15] [%] | inhibition at 50 µM [13, 16] [%] | inhibition at 50 µM [13, 17] [%] |
| --- | --- | --- | --- | --- | --- | --- | --- | --- | --- | --- | --- | --- | --- | --- | --- |
| CC(C)n1cc(-c2ccnc(NC(=O)[C@H](C)O)c2)c(-c2ccc(F)cc2)n1 [Compound 192] | 100 | 100 | 86 | 95 | 94 | 100 | 2.14 | 100 | 71 | 100 | 85 |  |  |  |  |
| CCC(=O)Nc1cc(-c2cn(CC3CC3)nc2-c2ccc(F)cc2)ccn1 [Compound 214] | 100 | 100 | 71 | 88 | 88 | 100 | 2.2 | 95 | 100 | 100 | 100 | 100 | 93 | 96 | 100 |
| CCC(=O)Nc1cc(-c2cn(CC(F)F)nc2-c2ccc(F)cc2)ccn1 [Compound 215] | 98 | 100 | 71 | 96 |  | 94 | 1.99 | 94 | 90 | 100 | 100 |  |  | 94 | 100 |
| CC(C)C(=O)Nc1cc(-c2cn(CC(F)F)nc2-c2ccc(F)cc2)ccn1 [Compound 218] | 98 | 92 | 93 | 95 |  | 100 | 2.29 | 95 | 100 | 100 | 100 |  |  | 79 | 100 |
| CC(C)C(=O)Nc1cc(-c2cn(CC3CC3)nc2-c2ccc(F)cc2)ccn1 [Compound 225] | 96 | 100 | 86 | 96 | 90 | 100 | 2.54 | 95 | 90 | 100 | 100 | 92 | 89 | 93 | 100 |
